Experimental findings from patent publication US9464084B2, “P2X7 modulators” (Janssen Pharmaceutica NV, priority 2013, dated 2016) are described below.

The first experiment deals with P2X7 (Homo sapiens (Human), UniProt Q99572). Briefly: P2X7 antagonism in human PBMCs (LPS + Bz-ATP induced IL-1β release, ELISA).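 Further: PBMCs from donor human blood, with a further 1.5 h incubation of the cells in the assay.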 The experiment is classed as cell-based. The settings on record: compound 1 μM, LPS 30 ng/ml, Bz-ATP 0.5 mM. A general note: In an ELISA, binding on a coated surface is turned into a signal by an enzyme label.
Chain of P2X7 (Q99572 whole entry): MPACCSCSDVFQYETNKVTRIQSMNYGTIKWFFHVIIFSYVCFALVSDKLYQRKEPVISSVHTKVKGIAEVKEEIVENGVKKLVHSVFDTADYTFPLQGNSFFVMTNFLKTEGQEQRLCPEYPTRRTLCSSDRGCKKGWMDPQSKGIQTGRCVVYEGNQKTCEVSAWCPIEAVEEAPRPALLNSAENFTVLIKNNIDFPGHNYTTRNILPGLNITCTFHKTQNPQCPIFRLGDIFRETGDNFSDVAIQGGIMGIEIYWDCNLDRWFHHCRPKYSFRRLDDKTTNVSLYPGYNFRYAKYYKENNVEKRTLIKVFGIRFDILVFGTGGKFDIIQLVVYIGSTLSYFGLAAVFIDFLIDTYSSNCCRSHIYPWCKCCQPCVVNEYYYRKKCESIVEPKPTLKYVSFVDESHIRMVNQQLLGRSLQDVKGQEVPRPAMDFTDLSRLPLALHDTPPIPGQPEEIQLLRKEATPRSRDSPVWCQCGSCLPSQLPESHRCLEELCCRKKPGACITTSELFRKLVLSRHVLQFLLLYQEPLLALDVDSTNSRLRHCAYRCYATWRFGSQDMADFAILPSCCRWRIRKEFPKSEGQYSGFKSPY
`CC1c2ncn(-c3ccc(F)cc3)c2CCN1C(=O)c1cccc(C(F)(F)F)c1Cl` (stereo not drawn) [Example 18, (2-Chloro-3-(trifluoromethyl)phenyl)(1-(4-fluorophenyl)-4-methyl-6,7-dihydro-1H-imidazo[4,5-c]pyridin-5(4H)-yl)methanone]: the “PBMC 1 μM (% control)” value is recorded as 5.3 % control.
Turning to `O=C(c1cccc(C(F)(F)F)c1Cl)N1CCc2c(nnn2-c2cnccn2)C1` [Example 91, 5-{[2-Chloro-3-(trifluoromethyl)phenyl]carbonyl}-1-pyrazin-2-yl-4,5,6,7-tetrahydro-1H-[1,2,3]triazolo[4,5-c]pyridine], the “PBMC 1 μM (% control)” value was determined as 6.1 % control.
With `O=C(c1cccc(Cl)c1Cl)N1CCc2ncn(-c3ccccn3)c2C1` [Example 9, (2,3-Dichlorophenyl)(3-(pyridin-2-yl)-6,7-dihydro-3H-imidazo[4,5-c]pyridin-5(4H)-yl)methanone], the “PBMC 1 μM (% control)” value came out at 83.7 % control.

Still in this experiment, the particulars now being: compound 10 μM, LPS 30 ng/ml, Bz-ATP 0.5 mM.
With `C[C@@H]1Cc2c(nnn2-c2ccn[nH]2)[C@@H](C)N1C(=O)c1cccc(C(F)(F)F)c1Cl` [Example 296, (2-chloro-3-(trifluoromethyl)phenyl)((4R,6R)-4,6-dimethyl-1-(1H-pyrazol-5-yl)-6,7-dihydro-1H-[1,2,3]triazolo[4,5-c]pyridin-5(4H)-yl)methanone], the “PBMC 10 μM (% control)” value amounted to 3.6 % control.
Regarding `Cc1c(C(=O)N2Cc3nnn(-c4ncc(F)cn4)c3C[C@H]2C)cccc1C(F)(F)F` (single isomer, unassigned) [Example 207, (6R*)-1-(5-Fluoropyrimidin-2-yl)-6-methyl-5-{[2-methyl-3-(trifluoromethyl)phenyl]carbonyl}-4,5,6,7-tetrahydro-1H-[1,2,3]triazolo[4,5-c]pyridine], the “PBMC 10 μM (% control)” value came to 45.0 % control.
Same read-out and setting: the result for `CC1Cc2c(nnn2-c2ccccn2)CN1C(=O)c1cccc(C(F)(F)F)c1Cl` (stereo not drawn) [Example 116, 5-{[2-Chloro-3-(trifluoromethyl)phenyl]carbonyl}-6-methyl-1-pyridin-2-yl-4,5,6,7-tetrahydro-1H-[1,2,3]triazolo[4,5-c]pyridine] reads 45.3 % control; that for `C[C@H]1c2ncn(-c3ccccn3)c2CCN1C(=O)c1cccc(C(F)(F)F)c1Cl` (single isomer, unassigned) [Example 45, (4 S*)-5-{[2-Chloro-3-(trifluoromethyl)phenyl]carbonyl}-4-methyl-1-pyridin-2-yl-4,5,6,7-tetrahydro-1H-imidazo[4,5-c]pyridine], 29.4 % control.
Still for that read-out and setting: the result for `C[C@@H]1c2nnn(-c3ncc(F)cn3)c2CCN1C(=O)c1cccc(C(F)(F)F)c1F` (single isomer, unassigned) [Example 190, (R*)-(2-fluoro-3-(trifluoromethyl)phenyl)(1-(5-fluoropyrimidin-2-yl)-4-methyl-6,7-dihydro-1H-[1,2,3]triazolo[4,5-c]pyridin-5(4H)-yl)methanone] reads 7.1 % control.
Take `C[C@H]1c2nnn(-c3ccn[nH]3)c2CCN1C(=O)c1cccc(C(F)(F)F)c1Cl` (single isomer, unassigned) [Example 134, (S*)-(2-Chloro-3-(trifluoromethyl)phenyl)(4-methyl-1-(1H-pyrazol-5-yl)-6,7-dihydro-1H-[1,2,3]triazolo[4,5-c]pyridin-5(4H)-yl)methanone]: the “PBMC 10 μM (% control)” value was 12.3 % control.
The same measure, in the same setting: the result for `O=C(c1cccc(C(F)(F)F)c1Cl)N1CCc2[nH]cnc2C1C(F)(F)F` (stereo not drawn) [Example 39, 5-{[2-Chloro-3-(trifluoromethyl)phenyl]carbonyl}-4-(trifluoromethyl)-4,5,6,7-tetrahydro-1H-imidazo[4,5-c]pyridine] reads 112.0 % control; that for `C[C@@H]1c2ncn(-c3ccccn3)c2CCN1C(=O)c1cccc(C(F)(F)F)c1Cl` (single isomer, unassigned) [Example 44, (4R*)-5-{[2-Chloro-3-(trifluoromethyl)phenyl]carbonyl}-4-methyl-1-pyridin-2-yl-4,5,6,7-tetrahydro-1H-imidazo[4,5-c]pyridine], 44.7 % control; that for `C[C@H]1Cc2c(nnn2-c2ncccc2F)CN1C(=O)c1cccc(C(F)(F)F)c1Cl` (single isomer, unassigned) [Example 168, (6S*)-5-{[2-Chloro-3-(trifluoromethyl)phenyl]carbonyl}-1-(3-fluoropyridin-2-yl)-6-methyl-4,5,6,7-tetrahydro-1H-[1,2,3]triazolo[4,5-c]pyridine], −4.2 % control.
As for `C[C@H]1c2nnn(-c3ncccn3)c2CCN1C(=O)c1cccc(C(F)(F)F)c1Cl` (single isomer, unassigned) [Example 87, (4S*)-5-{[2-Chloro-3-(trifluoromethyl)phenyl]carbonyl}-4-methyl-1-pyrimidin-2-yl-4,5,6,7-tetrahydro-1H-[1,2,3]triazolo[4,5-c]pyridine], the “PBMC 10 μM (% control)” value was found to be 21.7 % control.
Regarding `CC1Cc2c(nnn2-c2ccccc2)CN1C(=O)c1cccc(C(F)(F)F)c1Cl` (stereo not drawn) [Example 290, (2-chloro-3-(trifluoromethyl)phenyl)(6-methyl-1-phenyl-6,7-dihydro-1H-[1,2,3]triazolo[4,5-c]pyridin-5(4H)-yl)methanone], the “PBMC 10 μM (% control)” value is listed as −11.2 % control.
Take `CC1Cc2c(nnn2-c2ncc(F)cn2)CN1C(=O)c1ccc(F)c(Cl)c1Cl` (stereo not drawn) [Example 213, 5-[(2,3-Dichloro-4-fluorophenyl)carbonyl]-1-(5-fluoropyrimidin-2-yl)-6-methyl-4,5,6,7-tetrahydro-1H-[1,2,3]triazolo[4,5-c]pyridine]: the “PBMC 10 μM (% control)” value is 0.3 % control.
Still for that read-out and setting: the result for `C[C@H]1Cc2c(nnn2-c2ccccc2)CN1C(=O)c1cccc(C(F)(F)F)c1Cl` [Example 288, (S)-(2-chloro-3-(trifluoromethyl)phenyl)(6-methyl-1-phenyl-6,7-dihydro-1H-[1,2,3]triazolo[4,5-c]pyridin-5(4H)-yl)methanone] reads 4.4 % control; that for `C[C@H]1Cc2c(nnn2-c2ncc(F)cn2)CN1C(=O)c1cccc(C(F)(F)F)c1Cl` (single isomer, unassigned) [Example 202, (6S*)-5-{[2-Chloro-3-(trifluoromethyl)phenyl]carbonyl}-1-(5-fluoropyrimidin-2-yl)-6-methyl-4,5,6,7-tetrahydro-1H-[1,2,3]triazolo[4,5-c]pyridine], 24.1 % control; that for `C[C@H]1c2nnn(-c3ncccn3)c2CCN1C(=O)c1cccc(C(F)(F)F)c1F` (single isomer, unassigned) [Example 270, (S*)-(2-fluoro-3-(trifluoromethyl)phenyl)(4-methyl-1-(pyrimidin-2-yl)-6,7-dihydro-1H-[1,2,3]triazolo[4,5-c]pyridin-5(4H)-yl)methanone], 98.5 % control.
On the same count and under the same terms, the result for `CC1c2ncn(-c3ccccn3)c2CCN1C(=O)c1cccc(C(F)(F)F)c1F` (stereo not drawn) [Example 19, (2-Fluoro-3-(trifluoromethyl)phenyl)(4-methyl-1-(pyridin-2-yl)-6,7-dihydro-1H-imidazo[4,5-c]pyridin-5(4H)-yl)methanone] reads 11.6 % control.
The same measure, in the same setting: the result for `C[C@@H]1c2nnn(-c3ccn(C)n3)c2CCN1C(=O)c1cccc(C(F)(F)F)c1Cl` (single isomer, unassigned) [Example 169, (R*)-(2-Chloro-3-(trifluoromethyl)phenyl)(4-methyl-1-(1-methyl-1H-pyrazol-3-yl)-6,7-dihydro-1H-[1,2,3]triazolo[4,5-c]pyridin-5(4H)-yl)methanone] reads 95.0 % control.
Regarding `Cc1ccnc(-n2nnc3c2CCN(C(=O)c2cccc(C(F)(F)F)c2Cl)C3C)c1` (stereo not drawn) [Example 299, (2-chloro-3-(trifluoromethyl)phenyl)(4-methyl-1-(4-methylpyridin-2-yl)-6,7-dihydro-1H-[1,2,3]triazolo[4,5-c]pyridin-5(4H)-yl)methanone], the “PBMC 10 μM (% control)” value stood at 1.5 % control.
On the same count and under the same terms, the result for `CC1c2ncn(-c3ccc(F)cn3)c2CCN1C(=O)c1cccc(C(F)(F)F)c1Cl` (stereo not drawn) [Example 11, (2-Chloro-3-(trifluoromethyl)phenyl)(1-(5-fluoropyridin-2-yl)-4-methyl-6,7-dihydro-1H-imidazo[4,5-c]pyridin-5(4H)-yl)methanone] reads 25.2 % control; that for `Cc1cccc(-n2nnc3c2CCN(C(=O)c2cccc(C(F)(F)F)c2Cl)[C@@H]3C)n1` (single isomer, unassigned) [Example 226, (R*)-(2-chloro-3-(trifluoromethyl)phenyl)(4-methyl-1-(6-methylpyridin-2-yl)-6,7-dihydro-1H-[1,2,3]triazolo[4,5-c]pyridin-5(4H)-yl)methanone], 58.0 % control; that for `C[C@@H]1Cc2c(nnn2-c2ncccc2F)CN1C(=O)c1cccc(C(F)(F)F)c1Cl` (single isomer, unassigned) [Example 167, (6R*)-5-{[2-Chloro-3-(trifluoromethyl)phenyl]carbonyl}-1-(3-fluoropyridin-2-yl)-6-methyl-4,5,6,7-tetrahydro-1H-[1,2,3]triazolo[4,5-c]pyridine], 4.2 % control.
As to `C[C@H]1c2nnn(-c3ncc(F)cn3)c2CCN1C(=O)c1cccc(C(F)(F)F)c1Cl` (single isomer, unassigned) [Example 157, (S*)-(2-Chloro-3-(trifluoromethyl)phenyl)(1-(5-fluoropyrimidin-2-yl)-4-methyl-6,7-dihydro-1H-[1,2,3]triazolo[4,5-c]pyridin-5(4H)-yl)methanone], the “PBMC 10 μM (% control)” value is on record as −1.4 % control.
On the same count and under the same terms, as for `CC1Cc2c(nnn2-c2ccccc2)C(C)N1C(=O)c1cccc(C(F)(F)F)c1Cl` (stereo not drawn) [Example 240, (2-Chloro-3-(trifluoromethyl)phenyl)(4,6-dimethyl-1-phenyl-6,7-dihydro-1H-[1,2,3]triazolo[4,5-c]pyridin-5(4H)-yl)methanone], the figure is −8.9 % control.
The same measure, in the same setting: the result for `Cc1cc(C)nc(-n2nnc3c2CCN(C(=O)c2cccc(C(F)(F)F)c2Cl)[C@H]3C)n1` (single isomer, unassigned) [Example 182, (S*)-(2-chloro-3-(trifluoromethyl)phenyl)(1-(4,6-dimethylpyrimidin-2-yl)-4-methyl-6,7-dihydro-1H-[1,2,3]triazolo[4,5-c]pyridin-5(4H)-yl)methanone] reads 62.5 % control.
